From US20080113944A1, “Novel Indole Derivatives” (Novo Nordisk A/S, priority 2004, published 2008)

Row | melting point | Compound
1 | 219 to 221 °C | N#CC(=Cc1ccc2[nH]ccc2c1)S(=O)(=O)c1ccc([N+](=O)[O-])cc1 [Example 2, 3-(1H-indol-5-yl)-2-(4-nitrobenzenesulfonyl)acrylonitrile]
2 | 184 to 185 °C | CS(=O)(=O)C(C#N)=Cc1ccc2[nH]ccc2c1 [Example 3, 3-(1 H-indol-5-yl)-2-methanesulfonylacrylonitrile]
